The source of these data is patent US12227520B2 (priority 2019, dated 2025).

For one data set, the system named is pLai RLuc reporter virus. Briefly: microbe, parasite or virus in culture. The class given is cell-based, HIV. Particulars: Human immunodeficiency virus 1, 72 h. The method in brief: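 Read-out is Renilla luciferase after 72 h at 37 °C in MT-4 cells infected 2 h beforehand with pLai RLuc reporter virus; compounds diluted 1:3.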
Another data set deals with HIV-1 (IIIB). Nature of the data set: Antiviral assay in MT-4 cells (HIV MT-4 antiviral assay). It counts as cell-based. The conditions noted are these: Human immunodeficiency virus 1, IIIB, MT4, 120 h, HIV-1 (IIIB) in MT-4 cells, 5 days incubation; read-out: EC50. The method in brief: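 Read-out is CellTiter-Glo chemiluminescence after 5-day culture at 37° C, giving protection of MT-4 cells from HIV-1 IIIB cytopathicity. Compounds tested in 1:3 dilution series in complete RPMI; controls were no drug, mock infection and 5 μM AZT.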

Data set [1] in a line: Cytotoxicity assay in MT-4 cells. It counts as cell-based, human. Particulars: human, uninfected MT-4 cells, 5 days incubation; read-out: CC50. Summed up: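 For cytotoxicity, uninfected MT-4 cells were incubated with compounds 5 days at 37 °C, with 10 μM puromycin marking base cytotoxicity. Parallel plates used HIV-1 IIIB-infected (1:250 stock dilution) or mock cells with 5 μM AZT and no-drug controls. Read-out: CellTiter-Glo chemiluminescence.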

The mark [2] stands for this setting: read-out: Antiviral Serum Shift RLuc 50% HS, HS/CCM (RPMI media, 10% FBS, 50% HS, 1% P/S), 72-h incubation.
The mark [3] stands for this setting: read-out: Antiviral Serum Shift RLuc CCM, CCM (RPMI media, 10% FBS, 1% P/S), 72-h incubation.

Where two headings read alike, the source gives them in different places.

By CC50 is commonly meant the concentration giving 50% cytotoxicity.

As for `O=C(NCc1c(F)cc(F)cc1F)c1cn2c(c(O)c1=O)C(=O)N1C[C@H]2CCCc2ccccc21` [Example 80-2, (6R)-1-hydroxy-2,15-dioxo-N-(2,4,6-trifluorobenzyl)-2,6,7,8,9,15-hexahydro-6,14-methanobenzo[e]pyrido[1,2-a][1,4]diazecine-3-carboxamide], the EC50 in the data set on pLai RLuc reporter virus (setting [2]) worked out at 7.54 nM; in the data set on pLai RLuc reporter virus (setting [3]), 0.618 nM; with HIV-1 (IIIB) it was 5.35 nM. For the same molecule, the CC50 at 5 days in data set [1] was 13400 nM.

For `O=C(NCc1c(F)cc(F)cc1F)c1cn2c(c(O)c1=O)C(=O)N1CC[C@H](F)CC[C@H]2C1` [Example 81-1, (5R,8S)-5-fluoro-13-hydroxy-1,12-dioxo-N-(2,4,6-trifluorobenzyl)-1,3,4,5,6,7,8,12-octahydro-2,8-methanopyrido[1,2-a][1,4]diazecine-11-carboxamide], the EC50 with pLai RLuc reporter virus (setting [2]) was determined as 0.649 nM; in the data set with pLai RLuc reporter virus (setting [3]), 0.466 nM; in the data set on HIV-1 (IIIB) it was 1.96 nM. Also, the CC50 at 5 days in data set [1] is 23900 nM.

For the molecule `O=C(NCc1c(F)cc(F)cc1F)c1cn2c(c(O)c1=O)C(=O)N1CC[C@@H](F)CC[C@H]2C1` [Example 81-2, (5S,8S)-5-fluoro-13-hydroxy-1,12-dioxo-N-(2,4,6-trifluorobenzyl)-1,3,4,5,6,7,8,12-octahydro-2,8-methanopyrido[1,2-a][1,4]diazecine-11-carboxamide], the EC50 with pLai RLuc reporter virus (setting [2]) is 0.737 nM; in the data set with pLai RLuc reporter virus (setting [3]) it was 0.304 nM; in the data set with HIV-1 (IIIB), 1.35 nM. Besides, in data set [1], the half-maximal cytotoxic concentration (CC50) at 5 days was determined as 11200 nM.

As to `O=C(NCc1c(F)cc(F)cc1F)c1cn2c(c(O)c1=O)C(=O)N1CCC[C@H](O)C[C@H]2C1` [Example 82-1, (6S,8S)-6,13-dihydroxy-1,12-dioxo-N-(2,4,6-trifluorobenzyl)-1,3,4,5,6,7,8,12-octahydro-2,8-methanopyrido[1,2-a][1,4]diazecine-11-carboxamide], the EC50 in the data set on pLai RLuc reporter virus (setting [2]) is 5.16 nM; in the data set on pLai RLuc reporter virus (setting [3]), 4.5 nM; with HIV-1 (IIIB), 20.5 nM. Moreover, the CC50 at 5 days in data set [1] is over 50000 nM.

Take `O=C(NCc1c(F)cc(F)cc1F)c1cn2c(c(O)c1=O)C(=O)N1CCC[C@@H](O)C[C@H]2C1` [Example 82-2, (6R,8S)-6,13-dihydroxy-1,12-dioxo-N-(2,4,6-trifluorobenzyl)-1,3,4,5,6,7,8,12-octahydro-2,8-methanopyrido[1,2-a][1,4]diazecine-11-carboxamide]: the figures for the EC50 in the data set on pLai RLuc reporter virus (setting [2]), with pLai RLuc reporter virus (setting [3]) and in the data set on HIV-1 (IIIB) were 3 nM, 2.09 nM and 9.57 nM, respectively. Further, the CC50 at 5 days in data set [1] was over 50000 nM.

Consider `O=C(NCc1c(F)cc(F)cc1F)c1cn2c(c(O)c1=O)C(=O)N1CC[C@@H](O)CC[C@H]2C1` [Example 83-1, (5S,8S)-5,13-dihydroxy-1,12-dioxo-N-(2,4,6-trifluorobenzyl)-1,3,4,5,6,7,8,12-octahydro-2,8-methanopyrido[1,2-a][1,4]diazecine-11-carboxamide], for which the values for the EC50 in the data set with pLai RLuc reporter virus (setting [2]), with pLai RLuc reporter virus (setting [3]) and with HIV-1 (IIIB) were 7.08 nM, 8.19 nM and 39 nM, respectively. Moreover, in data set [1], the CC50 at 5 days is over 50000 nM.

`O=C(NCc1c(F)cc(F)cc1F)c1cn2c(c(O)c1=O)C(=O)N1CC[C@H](O)CC[C@H]2C1` [Example 83-2, (5R,8S)-5,13-dihydroxy-1,12-dioxo-N-(2,4,6-trifluorobenzyl)-1,3,4,5,6,7,8,12-octahydro-2,8-methanopyrido[1,2-a][1,4]diazecine-11-carboxamide]: the EC50 with pLai RLuc reporter virus (setting [2]) amounted to 2.08 nM; in the data set with pLai RLuc reporter virus (setting [3]) it was 2.15 nM; in the data set with HIV-1 (IIIB), 12.8 nM. Further, the CC50 at 5 days in data set [1] was over 50000 nM.

Turning to `C[C@H]1CC(F)C[C@H]2CN1C(=O)c1c(O)c(=O)c(C(=O)NCc3c(F)cc(F)cc3F)cn12` (stereo partly drawn) [Example 84, (3S,7S)-5-fluoro-12-hydroxy-3-methyl-1,11-dioxo-N-(2,4,6-trifluorobenzyl)-1,4,5,6,7,11-hexahydro-3H-2,7-methanopyrido[1,2-a][1,4]diazonine-10-carboxamide], the EC50 with pLai RLuc reporter virus (setting [2]) is 1.36 nM; with pLai RLuc reporter virus (setting [3]) it was 0.427 nM; in the data set on HIV-1 (IIIB), 2.01 nM. The CC50 at 5 days in data set [1] is 37200 nM.

In the case of `Cn1cc2c(n1)CC[C@H]1CN2C(=O)c2c(O)c(=O)c(C(=O)NCc3c(F)cc(F)cc3F)cn21` [Example 85-1, (11S)-6-hydroxy-2-methyl-5,7-dioxo-N-(2,4,6-trifluorobenzyl)-2,5,7,11,12,13-hexahydro-4,11-methanopyrazolo[4,3-e]pyrido[1,2-a][1,4]diazonine-8-carboxamide], the EC50 in the data set with pLai RLuc reporter virus (setting [2]) was found to be 1.57 nM; with pLai RLuc reporter virus (setting [3]), 1.06 nM; in the data set with HIV-1 (IIIB), 5.64 nM. Moreover, the CC50 at 5 days in data set [1] is over 49900 nM.

Consider `O=C(NCc1c(F)cc(F)cc1F)c1cn2c(c(O)c1=O)C(=O)N1C[C@@H]2CCc2ccc(F)cc21` [Example 86-2, (12S)-3-fluoro-7-hydroxy-6,8-dioxo-N-(2,4,6-trifluorobenzyl)-6,8,13,14-tetrahydro-12H-5,12-methanobenzo[e]pyrido[1,2-a][1,4]diazonine-9-carboxamide], for which the EC50 stood at 0.5 nM in the data set on pLai RLuc reporter virus (setting [2]), 0.262 nM in the data set on pLai RLuc reporter virus (setting [3]) and 1.1 nM with HIV-1 (IIIB). The cytotoxic concentration (CC50) at 5 days in data set [1] amounted to 13700 nM.

For the molecule `O=C(NCc1c(F)cc(F)cc1F)c1cn2c(c(O)c1=O)C(=O)N1Cc3cc(F)c(F)cc3C[C@H]2C1` [Example 88, (6S)-9,10-difluoro-1-hydroxy-2,14-dioxo-N-(2,4,6-trifluorobenzyl)-2,7,12,14-tetrahydro-6H-6,13-methanobenzo[f]pyrido[1,2-a][1,4]diazonine-3-carboxamide], the values for the EC50 with pLai RLuc reporter virus (setting [2]), in the data set with pLai RLuc reporter virus (setting [3]) and with HIV-1 (IIIB) were 1.62 nM, 0.269 nM and 1.61 nM, respectively. Moreover, the CC50 at 5 days in data set [1] is over 23400 nM.

Turning to `O=C(NCc1ccc(F)cc1F)c1cn2c(c(O)c1=O)C(=O)N1Cc3cc(F)c(F)cc3C[C@H]2C1` [Example 89, (6S)—N-(2,4-difluorobenzyl)-9,10-difluoro-1-hydroxy-2,14-dioxo-2,7,12,14-tetrahydro-6H-6,13-methanobenzo[f]pyrido[1,2-a][1,4]diazonine-3-carboxamide], the EC50 with pLai RLuc reporter virus (setting [2]) is 4.39 nM; in the data set on pLai RLuc reporter virus (setting [3]) it was 0.669 nM; in the data set with HIV-1 (IIIB), 2.38 nM. In addition, the CC50 at 5 days in data set [1] is over 47900 nM.

On to `O=C(NCc1ccc(F)c(Cl)c1F)c1cn2c(c(O)c1=O)C(=O)N1C[C@@H]2CCc2ccc(F)cc21` [Example 90-2, (12S)—N-(3-chloro-2,4-difluorobenzyl)-3-fluoro-7-hydroxy-6,8-dioxo-6,8,13,14-tetrahydro-12H-5,12-methanobenzo[e]pyrido[1,2-a][1,4]diazonine-9-carboxamide], for which the EC50 with pLai RLuc reporter virus (setting [2]) is 1.22 nM; with pLai RLuc reporter virus (setting [3]), 0.361 nM; in the data set on HIV-1 (IIIB), 2.42 nM. In addition, in data set [1], the CC50 at 5 days is over 20800 nM.

In the case of `O=C(NCc1ccc(F)cc1F)c1cn2c(c(O)c1=O)C(=O)N1C[C@H]2COc2cc(F)c(F)cc21` [Example 92-2, (6S)—N-(2,4-difluorobenzyl)-10,11-difluoro-1-hydroxy-2,14-dioxo-2,6,7,14-tetrahydro-6,13-methanobenzo[b]pyrido[2,1-f][1,4,7]oxadiazonine-3-carboxamide], the EC50 in the data set with pLai RLuc reporter virus (setting [2]) amounted to 0.772 nM; in the data set with pLai RLuc reporter virus (setting [3]), 0.309 nM; in the data set with HIV-1 (IIIB), 2.01 nM. The CC50 at 5 days in data set [1] was over 39300 nM.

For `CC[C@]1(O)CCCN2C[C@H]1n1cc(C(=O)NCc3c(F)cc(F)cc3F)c(=O)c(O)c1C2=O` [Example 93], the results for the EC50 in the data set on pLai RLuc reporter virus (setting [2]), in the data set on pLai RLuc reporter virus (setting [3]) and with HIV-1 (IIIB) were 1.55 nM, 0.462 nM and 2.24 nM, respectively. Also, the CC50 at 5 days in data set [1] was over 40400 nM.

In the case of `O=C(NCc1c(F)cc(F)cc1F)c1cn2c(c(O)c1=O)C(=O)N1C[C@@H]2CSc2ccccc21` [Example 94, (6R)-1-hydroxy-2,14-dioxo-N-(2,4,6-trifluorobenzyl)-2,6,7,14-tetrahydro-6,13-methanobenzo[b]pyrido[2,1-f][1,4,7]thiadiazonine-3-carboxamide], the EC50 with pLai RLuc reporter virus (setting [2]) was 1.73 nM; in the data set on pLai RLuc reporter virus (setting [3]), 0.411 nM; with HIV-1 (IIIB), 1.15 nM. For the same molecule, the CC50 at 5 days in data set [1] came out at 13700 nM.

Regarding `O=C(NCc1c(F)cc(F)cc1F)c1cn2c(c(O)c1=O)C(=O)N1C[C@@H]2C[S+]([O-])c2ccccc21` (stereo partly drawn) [Example 95, (6R)-1-hydroxy-2,14-dioxo-N-(2,4,6-trifluorobenzyl)-2,6,7,14-tetrahydro-6,13-methanobenzo[b]pyrido[2,1-f][1,4,7]thiadiazonine-3-carboxamide 8-oxide], the EC50 amounted to 4.84 nM in the data set on pLai RLuc reporter virus (setting [2]), 5.18 nM with pLai RLuc reporter virus (setting [3]) and 31.5 nM in the data set on HIV-1 (IIIB). Further, the half-maximal cytotoxic concentration (CC50) at 5 days in data set [1] was over 50000 nM.

Regarding `O=C(NCc1c(F)cc(F)cc1F)c1cn2c(c(O)c1=O)C(=O)N1C[C@@H]2CS(=O)(=O)c2ccccc21` [Example 96, (6R)-1-hydroxy-2,14-dioxo-N-(2,4,6-trifluorobenzyl)-2,6,7,14-tetrahydro-6,13-methanobenzo[b]pyrido[2,1-f][1,4,7]thiadiazonine-3-carboxamide 8,8-dioxide], the results for the EC50 in the data set on pLai RLuc reporter virus (setting [2]), in the data set with pLai RLuc reporter virus (setting [3]) and in the data set with HIV-1 (IIIB) were 3.33 nM, 3.09 nM and 18.1 nM, respectively. Also, in data set [1], the CC50 at 5 days was over 50000 nM.
